According to patent publication US20100179200A1, “2-OXOTHIAZOLIDINE 4-CARBOXYLIC ACID COMPOUNDS FOR PROMOTING DESQUAMATION OF THE SKIN” (SOCIETE L'OREAL, S.A., priority 2000, published 2010):

Columns and labels:
corneodesmosine = assay: Evaluating desquamation by measuring the degradation of corneodesmosines (immunoblot of stratum corneum acetonic powders); assay type: biochemical, human; settings: aqueous solution containing 2% of active agent, pH 8.0, incubation 17 h at 30° C., versus control without active agent
Description: Corneodesmosine is one of the major markers of desquamation of the corneodesmosome. It is studied by immunoblotting after separation by electrophoresis and transfer onto a membrane.
The mouse monoclonal antibody G36-19 is specific for corneodesmosine; it fauns part of a series of antibodies directed against epidermal differentiation antigens, produced after immunizing a mouse with a homogenate of human plantar horny layer, and then characterized (Serre G. et al., J. Invest. Dermatol. 1991; 97(6):1061-72).
Varnish-stripping operations are carried out on the lower legs of volunteers (modification of the procedure by Lundström A. and Egelrud T., Acta Derm. Venereol. (Stockholm) 71, 471-474, 1991). […]
The samples and also a Rainbow (Amersham Pharmacia Biotech) low molecular weight standard at 1/3 are separated by electrophoresis on gel containing 12% acrylamide for 30 minutes at 100 V and then for 1 hour at 200 V. After the electrophoresis, the proteins are transferred onto an Immobilon-P membrane (Millipore) for 3 hours at 60 V. The membrane is then incubated for twice 15 minutes in TBS-TL buffer: 25 mM Tris, 0.15M NaCl pH 7.2, 0.05% Tween 20, 0.5% skimmed milk powder, in order to block the non-specific sites. […] The chemiluminescence of the corneodesmosine bands is measured with the FluorS Multimager (Biorad). The 33 and 46 kD bands are quantified with the Quantity-one software (Biorad). […]

[1] = Solubility of procysteine; assay type: physicochemical

O=C1N[C@H](C(=O)O)CS1 [Procysteine, L-2-oxothiazolidine-4-carboxylic acid]
Percentage increase in corneodesmosine degradation (corneodesmosine): 77% | solubility in ethanol ([1]; ethanol): greater than 10% | solubility in water ([1]; water): greater than 4%
